Experimental data as given in patent publication US6627634B2, “Bicyclic heterocycles, pharmaceutical compositions containing them, their use, and processes for preparing them” (Boehringer Ingelheim Pharma KG, priority 2000, dated 2003).

target: T1, human EGF-R (Homo sapiens, UniProt P00533); assay: Inhibition of EGF-dependent proliferation of F/L-HERc cells; format: cell-based; details: F/L-HERc cells (murine IL-3-dependent line expressing human EGF-R), stimulated with EGF 20 ng/ml, 48 hours, Cell Titer 96 AQueous assay
T1 construct: expressed in transfected cells; host or cells: F/L-HERc cells (murine IL-3-dependent FDC-P1 line transduced with retroviral vector LXSN carrying human EGF-R cDNA; packaging line GP+E86)
T1 sequence (P00533 25-1210): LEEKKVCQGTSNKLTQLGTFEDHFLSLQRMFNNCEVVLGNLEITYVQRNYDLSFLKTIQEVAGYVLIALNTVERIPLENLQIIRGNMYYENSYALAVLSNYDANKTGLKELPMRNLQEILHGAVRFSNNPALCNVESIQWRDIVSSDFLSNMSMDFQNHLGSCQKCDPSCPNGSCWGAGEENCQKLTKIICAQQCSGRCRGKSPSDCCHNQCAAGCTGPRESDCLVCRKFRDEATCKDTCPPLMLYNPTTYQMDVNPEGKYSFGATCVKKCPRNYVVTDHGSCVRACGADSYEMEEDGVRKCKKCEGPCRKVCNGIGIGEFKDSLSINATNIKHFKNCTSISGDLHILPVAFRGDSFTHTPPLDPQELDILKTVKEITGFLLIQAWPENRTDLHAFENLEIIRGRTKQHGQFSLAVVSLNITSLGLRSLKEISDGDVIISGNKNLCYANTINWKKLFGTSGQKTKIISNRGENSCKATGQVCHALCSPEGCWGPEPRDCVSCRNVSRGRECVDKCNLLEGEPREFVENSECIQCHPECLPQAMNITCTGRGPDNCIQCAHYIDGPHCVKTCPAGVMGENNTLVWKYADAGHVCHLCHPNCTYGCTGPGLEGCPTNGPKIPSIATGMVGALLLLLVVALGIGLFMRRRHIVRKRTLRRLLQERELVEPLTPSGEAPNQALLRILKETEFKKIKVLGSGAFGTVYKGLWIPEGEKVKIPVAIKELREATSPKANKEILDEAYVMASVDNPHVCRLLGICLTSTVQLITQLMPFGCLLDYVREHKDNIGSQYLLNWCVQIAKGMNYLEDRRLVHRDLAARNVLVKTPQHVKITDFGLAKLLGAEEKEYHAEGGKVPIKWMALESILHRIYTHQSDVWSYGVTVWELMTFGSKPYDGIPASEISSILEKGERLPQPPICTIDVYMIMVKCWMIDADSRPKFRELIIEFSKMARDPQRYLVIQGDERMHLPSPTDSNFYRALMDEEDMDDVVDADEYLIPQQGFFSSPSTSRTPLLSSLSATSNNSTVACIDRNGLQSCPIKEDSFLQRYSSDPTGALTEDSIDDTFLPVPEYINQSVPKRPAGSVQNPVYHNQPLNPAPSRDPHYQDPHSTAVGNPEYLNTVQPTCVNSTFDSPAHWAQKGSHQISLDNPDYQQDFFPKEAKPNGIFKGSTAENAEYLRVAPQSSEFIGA
From the text: A cell line of murine origin dependent on interleukin-3-(IL-3) which was genetically modified to express functional human EGF-R was used here. The proliferation of these cells known as F/L-HERc can therefore be stimulated either by murine IL-3 or by EGF (cf. T. von Rüiden et al. in EMBO J. 7, 2749-2756 (1988) and J. H. Pierce et al. in Science 239, 628-631 (1988)).
The starting material used for the F/L-HERc cells was the cell line FDC-P1, the production of which has been described by T. M. Dexter et al., J. Exp. Med. 152 1036-1047 (1980). Alternatively, however, other growth-factor-dependent cells may also be used (cf., e.g., J. H. Pierce et al., Science 239, 628-631 (1988); H. Shibuya et al., Cell 70, 57-67 (1992); and W. S. Alexander et al., EMBO J. 10, 3683-3691 (1991)). For expressing the human EGF-R cDNA (cf. A. Ullrich et al., Nature 309, 418-425 (1984)) recombinant retroviruses were used as described by T. von Rüiden et al., EMBO J. 7, 2749-2756 (1988), except that the retroviral vector LXSN (cf. A. D. Miller et al., BioTechniques 7, 980-990 (1989)) was used for the expression of the EGF-R cDNA and the line GP+E86 (cf. D. Markowitz et al., J. Virol. 62, 1120-1124 (1988)) was used as the packaging cell.
F/L-HERc cells were cultivated in RPMI/1640 medium (BioWhittaker), supplemented with 10% fetal calf serum (FCS, Boehringer Mannheim), 2 mM glutamine (BioWhittaker), standard antibiotics and 20 ng/ml of human EGF (Promega), at 37° C. and 5% CO2. In order to investigate the inhibitory activity of the compounds according to the invention, 1.5×10^4 cells per well were cultivated in triplicate in 96-well dishes in the above medium (200 μl), the cell proliferation being stimulated with either EGF (20 ng/ml) or murine IL-3. The IL-3 used was obtained from culture supernatants of the cell line X63/0 mIL-3 (cf. H. Karasuyama et al., Eur. J. Immunol. 18, 97-104 (1988)). The compounds according to the invention were dissolved in 100% dimethylsulfoxide (DMSO) and added to the cultures in various dilutions, the maximum DMSO concentration being 1%. The cultures were incubated for 48 hours at 37° C.
In order to determine the inhibitory activity of the compounds according to the invention the relative cell number was measured in O.D. units using the Cell Titer 96™ AQueous Non-Radioactive Cell Proliferation Assay (Promega). The relative cell number was calculated as a percentage of the control (F/LHERc cells without inhibitor) and the concentration of active substance which inhibits the proliferation of the cells by 50% (IC50) was derived therefrom.

IC50 [nM] | Compound
0.05 | O=C(C=CCN1CCN(C2CCOC2=O)CC1)Nc1cc2c(Nc3ccc(F)c(Cl)c3)ncnc2cc1OCC1CC1 (stereo not drawn) [Example 1, 4-[(3-chloro-4-fluorophenyl)amino]-6-({4-[4-(2-oxotetrahydrofuran-3-yl)piperazin-1yl]-1-oxo-2-buten-1-yl}amino)-7-cyclopropylmethoxyquinazoline]
0.6 | O=C(C=CCN1CCN(C2COC(=O)C2)CC1)Nc1cc2c(Nc3ccc(F)c(Cl)c3)ncnc2cc1OCC1CC1 (stereo not drawn) [Example 2, 4-[(3-chloro-4-fluorophenyl)amino]-6-({4-[4-(2-oxotetrahydrofuran-4-yl)piperazin-1-yl]-1-oxo-2-buten-1-yl}amino)-7-cyclopropylmethoxyquinazoline]
10 | O=C(C=CCN1CCN2CC(=O)OCC2C1)Nc1cc2c(Nc3ccc(F)c(Cl)c3)ncnc2cc1OCC1CC1 (stereo not drawn) [4(3), 4-[(3-chloro-4-fluorophenyl)amino]-6-{[4-(3-oxoperhydropyrazino[2,1-c][1,4]oxazin-8-yl)-1-oxo-2-buten-1-yl]amino}-7-cyclopropylmethoxyquinazoline]
3 | O=C(C=CCN1CCN(CCSC2CCOC2=O)CC1)Nc1cc2c(Nc3ccc(F)c(Cl)c3)ncnc2cc1OCC1CC1 (stereo not drawn) [Example 4, 4-[(3-chloro-4-fluorophenyl)amino]-6-{[4-(4-{2-[(2-oxotetrahydrofuran-3-yl)sulfanyl]ethyl}piperazin-1-yl)-1-oxo-2-buten-1-yl]amino}-7-cyclopropylmethoxyquinazoline]

system: not given; assay: not given; details: not given

melting point [°C] | Compound
130 to 131 | O=C(C=CCN1CCN(C2CCOC2=O)CC1)Nc1cc2c(Nc3ccc(F)c(Cl)c3)ncnc2cc1OCC1CC1 (stereo not drawn) [Example 1, 4-[(3-chloro-4-fluorophenyl)amino]-6-({4-[4-(2-oxotetrahydrofuran-3-yl)piperazin-1yl]-1-oxo-2-buten-1-yl}amino)-7-cyclopropylmethoxyquinazoline]
155 to 157 | O=C(C=CCN1CCN(C(=O)[C@@H]2CCC(=O)O2)CC1)Nc1cc2c(Nc3ccc(F)c(Cl)c3)ncnc2cc1OCC1CC1 [Example 3, (S)-4-[(3-chloro-4-fluorophenyl)amino]-6-[(4-{4-[(5-oxotetrahydrofuran-2-yl)carbonyl]piperazin-1-yl}-1-oxo-2-buten-1-yl)amino]-7-cyclopropylmethoxyquinazoline]
